Assay results as given in patent US4085224A, “Method of increasing feed utilization” (Eli Lilly and Company, priority 1976, dated 1978).

System: Eimeria tenella
Assay: anticoccidial activity in chicks (Table VIII)
Type: in vivo
Settings: for Percent Weight Gain: normal controls 100
[1] = first group, 0.01 percent in feed
[2] = first group, 0.02 percent in feed
[3] = first group, 0.04 percent in feed
[4] = second group, 0.0025 percent in feed
[5] = second group, 0.005 percent in feed
[6] = second group, 0.01 percent in feed
[7] = second group, 0.02 percent in feed

CCC(C(=O)O)C1OC(C(C)C(O)C(C)C(=O)C(CC)C2OC3(C=CC(O)C4(CCC(C)(C5CCC(O)(CC)C(C)O5)O4)O3)C(C)CC2C)C(C)CC1C (stereo not shown) [A-28086 factor A]
Percent Reduction in Lesion Score [1]: 95% | Percent Mortality (first group, 0.01 percent in feed, 10 chickens): 0% | Average Lesion Score (first group, 0.01 percent in feed, infected controls 3.65): 0.2 | Percent Weight Gain [1]: 94% | Percent Reduction in Lesion Score [2]: 95% | Percent Mortality (first group, 0.02 percent in feed, 10 chickens): 0% | Average Lesion Score (first group, 0.02 percent in feed, infected controls 3.65): 0.2 | Percent Weight Gain [2]: 82% | Percent Reduction in Lesion Score [3]: 100% | Percent Mortality (first group, 0.04 percent in feed, 10 chickens): 0% | Average Lesion Score (first group, 0.04 percent in feed, infected controls 3.65): 0 | Percent Weight Gain [3]: 50% | Percent Reduction in Lesion Score [4]: 0% | Percent Mortality (second group, 0.0025 percent in feed, 20 chickens): 10% | Average Lesion Score (second group, 0.0025 percent in feed, infected controls 3.85): 3.85 | Percent Weight Gain [4]: 87% | Percent Reduction in Lesion Score [5]: 27% | Percent Mortality (second group, 0.005 percent in feed, 20 chickens): 0% | Average Lesion Score (second group, 0.005 percent in feed, infected controls 3.85): 2.8 | Percent Weight Gain [5]: 91% | Percent Reduction in Lesion Score [6]: 100% | Percent Mortality (second group, 0.01 percent in feed, 20 chickens): 0% | Average Lesion Score (second group, 0.01 percent in feed, infected controls 3.85): 0 | Percent Weight Gain [6]: 96% | Percent Reduction in Lesion Score [7]: 100% | Percent Mortality (second group, 0.02 percent in feed, 20 chickens): 0% | Average Lesion Score (second group, 0.02 percent in feed, infected controls 3.85): 0 | Percent Weight Gain [7]: 84%
